According to article PMC8286840, “Identifying SARS-CoV-2 antiviral compounds by screening for small molecule inhibitors of Nsp3 papain-like protease” (Biochemical Journal, 2021):
Counter-ions that a name gives are not always drawn. Like-named read-outs stand apart in the source and are kept apart here.

Key:
[1] = target: T1, SARS-CoV-2 PLpro (nsp3 1564–1878) (Severe acute respiratory syndrome coronavirus 2, UniProt P0DTD1); test: biochemical; design: FRET-quenched peptide (Pro3) cleavage by PLpro, 10 min pre-incubation, slope over 20 min, normalised to no-compound control; conditions: read-out: % of control remaining
[2] = target: T1, SARS-CoV-2 PLpro (nsp3 1564–1878); test: biochemical; design: FRET-quenched peptide (Pro3) cleavage by PLpro, 10 min pre-incubation, slope over 20 min, normalised to no-compound control; conditions: read-out: % of control remaining; remark: listed apart in the source

SMILES: CC#CCn1c(N2CCC[C@@H](N)C2)nc2c1c(=O)n(Cc1nc(C)c3ccccc3n1)c(=O)n2C [Linagliptin (BI-1356)]
- remaining activity at 1.25 µM ([1]; Well no.=4883, low concentration screen): 97%
- remaining activity at 3.75 µM ([2]; Well no.=4883, high concentration screen): 93.9%

SMILES: CC(C)OC(=O)OCOP(=O)(CO[C@H](C)Cn1cnc2c(N)ncnc21)OCOC(=O)OC(C)C [Tenofovir Disoproxil Fumarate]
- remaining activity at 1.25 µM ([1]; Well no.=4811, low concentration screen): 97.8%
- remaining activity at 3.75 µM ([2]; Well no.=4811, high concentration screen): 99.5%

SMILES: O=C(O)/C=C\C(=O)O [Maleic Acid]
- remaining activity at 1.25 µM ([1]; Well no.=6593, low concentration screen): 100%
- remaining activity at 3.75 µM ([2]; Well no.=6593, high concentration screen): 101%

SMILES: CC(C)(CO)Cc1cc(C(C)(C)C)c(O)c(C(C)(C)C)c1 [CGP-7930]
- remaining activity at 1.25 µM ([1]; Well no.=43, low concentration screen): 101%
- remaining activity at 3.75 µM ([2]; Well no.=43, high concentration screen): 102%

SMILES: c1ccc(CCCN2CCN(CCOC(c3ccccc3)c3ccccc3)CC2)cc1 [GBR-12935 dihydrochloride]
- remaining activity at 1.25 µM ([1]; Well no.=765, low concentration screen): 91%
- remaining activity at 3.75 µM ([2]; Well no.=765, high concentration screen): 87.4%

SMILES: C[N+]1(C)[C@@H]2CC[C@H]1C[C@@H](OC(=O)C(O)c1ccccc1)C2 (stereo partly drawn) [Homatropine Methylbromide]
- remaining activity at 1.25 µM ([1]; Well no.=5080, low concentration screen): 98.2%
- remaining activity at 3.75 µM ([2]; Well no.=5080, high concentration screen): 101%

SMILES: O=C1[C@H](CC[C@H](O)c2ccc(F)cc2)[C@@H](c2ccc(O)cc2)N1c1ccc(F)cc1 [Ezetimibe]
- remaining activity at 1.25 µM ([1]; Well no.=8428, low concentration screen): 91.6%
- remaining activity at 3.75 µM ([2]; Well no.=8428, high concentration screen): 89.1%

SMILES: O=C(O)c1ccccc1Nc1cccc(OCc2ccc3ccccc3n2)c1 [SR 2640]
- remaining activity at 1.25 µM ([1]; Well no.=1316, low concentration screen): 101%
- remaining activity at 3.75 µM ([2]; Well no.=1316, high concentration screen): 101%

SMILES: O=C(O)CP(=O)(O)O [Phosphonoacetic acid]
- remaining activity at 1.25 µM ([1]; Well no.=1299, low concentration screen): 101%
- remaining activity at 3.75 µM ([2]; Well no.=1299, high concentration screen): 103%

SMILES: CCCCCCCCCCCCC/C=C/[C@@H](O)[C@H](CO)NC(=O)CCCCCCC [C8 Ceramide]
- remaining activity at 1.25 µM ([1]; Well no.=4255, low concentration screen): 100%
- remaining activity at 3.75 µM ([2]; Well no.=4255, high concentration screen): 99.1%

SMILES: CCN1CCCC1CNC(=O)c1cc(S(N)(=O)=O)ccc1OC (stereo not drawn) [Sulpiride]
- remaining activity at 1.25 µM ([1]; Well no.=6423, low concentration screen): 99.1%
- remaining activity at 3.75 µM ([2]; Well no.=6423, high concentration screen): 97.9%

SMILES: O=C[C@H](O)[C@@H](O)[C@@H](O)[C@H](O)CO [D-Galactose]
- remaining activity at 1.25 µM ([1]; Well no.=6871, low concentration screen): 103%
- remaining activity at 3.75 µM ([2]; Well no.=6871, high concentration screen): 96.9%

SMILES: O=c1ccn([C@@H]2O[C@H](COP(=O)(O)O)[C@@H](O)[C@H]2O)c(=O)[nH]1 [Uridine 5'-monophosphate disodium salt]
- remaining activity at 1.25 µM ([1]; Well no.=8935, low concentration screen): 112%
- remaining activity at 3.75 µM ([2]; Well no.=8935, high concentration screen): 97.2%

SMILES: CN(C)CCCN1c2ccccc2Sc2ccc(Cl)cc21 [Chlorpromazine (hydrochloride)]
- remaining activity at 1.25 µM ([1]; Well no.=6227, low concentration screen): 95.8%
- remaining activity at 3.75 µM ([2]; Well no.=6227, high concentration screen): 96.3%

SMILES: C[C@@H](Oc1cc(-n2cnc3ccc(CN4CCN(C)CC4)cc32)sc1C(N)=O)c1ccccc1C(F)(F)F [GSK461364]
- remaining activity at 1.25 µM ([1]; Well no.=5146, low concentration screen): 102%
- remaining activity at 3.75 µM ([2]; Well no.=5146, high concentration screen): 103%

SMILES: C=CCN1CCc2c(cc(O)c(O)c2Cl)C(c2ccccc2)C1 (racemic)
- remaining activity at 1.25 µM ([1]; Well no.=725, low concentration screen): 96.8%
- remaining activity at 3.75 µM ([2]; Well no.=725, high concentration screen): 96.5%

SMILES: CCCc1ncc(C[n+]2ccccc2C)c(N)n1 [Amprolium HCl]
- remaining activity at 1.25 µM ([1]; Well no.=8588, low concentration screen): 106%
- remaining activity at 3.75 µM ([2]; Well no.=8588, high concentration screen): 108%

SMILES: CNC(=O)c1cc2c(cn1)[nH]c1ccccc12 [N-Methyl-beta-carboline-3-carboxamide]
- remaining activity at 1.25 µM ([1]; Well no.=655, low concentration screen): 96.4%
- remaining activity at 3.75 µM ([2]; Well no.=655, high concentration screen): 94.2%

SMILES: OC[C@H]1O[C@@H](n2cnc3c(=S)nc[nH]c32)[C@H](O)[C@@H]1O [6-_Thioinosine]
- remaining activity at 1.25 µM ([1]; Well no.=7724, low concentration screen): 99.8%
- remaining activity at 3.75 µM ([2]; Well no.=7724, high concentration screen): 96.5%

SMILES: CC1CS(=O)(=O)CCN1/N=C/c1ccc([N+](=O)[O-])o1 (stereo not drawn) [Nifurtimox]
- remaining activity at 1.25 µM ([1]; Well no.=5382, low concentration screen): 98.3%
- remaining activity at 3.75 µM ([2]; Well no.=5382, high concentration screen): 99.2%

SMILES: CCOC(=O)CCNc1cc(N2CCc3ccccc3CC2)nc(-c2ccccn2)n1 [GSK-J4]
- remaining activity at 1.25 µM ([1]; Well no.=5779, low concentration screen): 106%
- remaining activity at 3.75 µM ([2]; Well no.=5779, high concentration screen): 106%

SMILES: c1cc(CN2CCCNCCNCCCNCC2)ccc1CN1CCCNCCNCCCNCC1 [Plerixafor (octahydrochloride)]
- remaining activity at 1.25 µM ([1]; Well no.=8020, low concentration screen): 95.7%
- remaining activity at 1.25 µM ([1]; Well no.=8097, low concentration screen): 104%
- remaining activity at 1.25 µM ([1]; Well no.=8749, low concentration screen): 100%
- remaining activity at 3.75 µM ([2]; Well no.=8020, high concentration screen): 94.1%
- remaining activity at 3.75 µM ([2]; Well no.=8097, high concentration screen): 101%
- remaining activity at 3.75 µM ([2]; Well no.=8749, high concentration screen): 100%

SMILES: Nc1nc(Cl)nc2c1ncn2[C@@H]1O[C@H](COP(=O)(O)OP(=O)(O)OP(=O)(O)O)[C@H](O)C1O (stereo partly drawn) [2-Chloroadenosine triphosphate tetrasodium]
- remaining activity at 1.25 µM ([1]; Well no.=535, low concentration screen): 100%
- remaining activity at 3.75 µM ([2]; Well no.=535, high concentration screen): 102%

SMILES: Cc1c(CC(=O)O)c2cccnc2n1Cc1ccc(S(C)(=O)=O)cc1C(F)(F)F [Fevipiprant]
- remaining activity at 1.25 µM ([1]; Well no.=7767, low concentration screen): 106%
- remaining activity at 3.75 µM ([2]; Well no.=7767, high concentration screen): 106%

SMILES: N[C@@H](Cc1ccc(N(CCCl)CCCl)cc1)C(=O)O [Melphalan]
- remaining activity at 1.25 µM ([1]; Well no.=1112, low concentration screen): 94.4%
- remaining activity at 1.25 µM ([1]; Well no.=1953, low concentration screen): 100%
- remaining activity at 3.75 µM ([2]; Well no.=1112, high concentration screen): 94.4%

SMILES: Nc1ccc(CNc2ncnc3c2ncn3[C@@H]2O[C@H](CO)[C@@H](O)[C@H]2O)cc1 [N-[(4-Aminophenyl)methyl]adenosine]
- remaining activity at 1.25 µM ([1]; Well no.=8319, low concentration screen): 104%
- remaining activity at 1.25 µM ([1]; Well no.=8895, low concentration screen): 102%
- remaining activity at 3.75 µM ([2]; Well no.=8319, high concentration screen): 100%
- remaining activity at 3.75 µM ([2]; Well no.=8895, high concentration screen): 99.6%

SMILES: CC(C)(C)NCC(O)c1cc(Cl)c(N)c(Cl)c1 (stereo not drawn) [Clenbuterol (hydrochloride)]
- remaining activity at 1.25 µM ([1]; Well no.=7371, low concentration screen): 103%
- remaining activity at 3.75 µM ([2]; Well no.=7371, high concentration screen): 104%

SMILES: N#CC[C@H](C1CCCC1)n1cc(-c2ncnc3[nH]ccc23)cn1 [S-Ruxolitinib]
- remaining activity at 1.25 µM ([1]; Well no.=4841, low concentration screen): 96.7%
- remaining activity at 3.75 µM ([2]; Well no.=4841, high concentration screen): 97.5%

SMILES: C[C@]12CC[C@H](O)C[C@H]1CC[C@@H]1[C@@H]2CC[C@]2(C)[C@@H](C3=CC(=O)OC3)[C@@H](O)C[C@]12O [Gitoxigenin]
- remaining activity at 1.25 µM [1]: 105%
- remaining activity at 3.75 µM [2]: 104%

SMILES: CCOc1cc(/C=C2/C(=O)N(c3ccccc3)N=C2C)cc(Cl)c1OCC(=O)OC [SJ-172550]
- remaining activity at 1.25 µM ([1]; Well no.=6354, low concentration screen): 91.1%
- remaining activity at 3.75 µM ([2]; Well no.=6354, high concentration screen): 90.9%

SMILES: CC[C@@H](C(N)=O)N1CCCC1=O [Levetiracetam]
- remaining activity at 1.25 µM ([1]; Well no.=1820, low concentration screen): 96.8%
- remaining activity at 3.75 µM ([2]; Well no.=1820, high concentration screen): 94.4%

SMILES: COc1ccc(CCN(C)CCCC(C#N)(c2cc(OC)c(OC)c(OC)c2)C(C)C)cc1OC (racemic)
- remaining activity at 1.25 µM ([1]; Well no.=1026, low concentration screen): 94.4%
- remaining activity at 3.75 µM ([2]; Well no.=1026, high concentration screen): 98.1%

SMILES: O=C(CNC(=O)c1cccc(C(F)(F)F)c1)N[C@@H]1CCN(Cc2ccc(Cl)cc2)C1 [Teijin compound 1 hydrochloride]
- remaining activity at 1.25 µM ([1]; Well no.=5505, low concentration screen): 104%
- remaining activity at 3.75 µM ([2]; Well no.=5505, high concentration screen): 112%

SMILES: NCCCNCCCCNCCCN [Spermine tetrahydrochloride]
- remaining activity at 1.25 µM ([1]; Well no.=1312, low concentration screen): 100%
- remaining activity at 3.75 µM ([2]; Well no.=1312, high concentration screen): 101%
